# Data reported in publication PMC6476273, “Engineering a Model Cell for Rational Tuning of GPCR Signaling” (Cell, 2019).
# Where two headings read alike, the source gives them in different places. Ends that are not written are not given here.
# Key:
# Ste2 = assay: α-factor dose-response of pheromone response pathway strains, sfGFP by flow cytometry; format: cell-based, Saccharomyces cerevisiae
# human A2BR receptor [1] = biological target: T1, human A2BR receptor (Homo sapiens, UniProt P29275); assay: Adenosine dose-response, A2BR single strain and three-strain consortium, sfGFP by plate reader; format: cell-based; details: for Hill slope: plate reader
# T1 sequence (P29275 1-332): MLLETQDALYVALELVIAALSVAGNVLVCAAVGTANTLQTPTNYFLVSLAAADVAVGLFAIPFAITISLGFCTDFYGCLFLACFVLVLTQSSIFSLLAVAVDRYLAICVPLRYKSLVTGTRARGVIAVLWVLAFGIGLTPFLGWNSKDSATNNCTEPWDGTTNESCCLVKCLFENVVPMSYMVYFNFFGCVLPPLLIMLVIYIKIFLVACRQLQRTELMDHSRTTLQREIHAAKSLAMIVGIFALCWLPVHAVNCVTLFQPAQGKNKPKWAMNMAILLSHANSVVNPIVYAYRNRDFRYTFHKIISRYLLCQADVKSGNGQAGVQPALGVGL
# T1 sequence (P08539 2-472 partner): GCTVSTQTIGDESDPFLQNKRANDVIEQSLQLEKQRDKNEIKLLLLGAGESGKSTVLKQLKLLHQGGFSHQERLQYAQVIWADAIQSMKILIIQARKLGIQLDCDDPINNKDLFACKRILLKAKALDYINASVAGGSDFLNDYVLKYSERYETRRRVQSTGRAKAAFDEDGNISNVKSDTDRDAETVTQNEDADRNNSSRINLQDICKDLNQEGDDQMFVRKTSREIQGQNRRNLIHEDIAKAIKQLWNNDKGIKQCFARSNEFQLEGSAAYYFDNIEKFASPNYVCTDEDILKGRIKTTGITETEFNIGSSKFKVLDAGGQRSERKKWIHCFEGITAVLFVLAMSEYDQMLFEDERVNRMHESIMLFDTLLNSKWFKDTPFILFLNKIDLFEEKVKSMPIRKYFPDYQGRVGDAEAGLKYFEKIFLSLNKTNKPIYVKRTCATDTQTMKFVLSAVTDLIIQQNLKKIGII
# human A2BR receptor [2] = biological target: T1, human A2BR receptor; assay: Adenosine dose-response, A2BR sensor strain, sfGFP by flow cytometry; format: cell-based; details: Fig S6C, wild-type Gpa1, triplicate isolates
# Mam2 receptor = biological target: T2, Mam2 receptor (Schizosaccharomyces pombe, UniProt Q00619); assay: P-factor dose-response, Mam2 sensor strain in yWS677, sfGFP by flow cytometry; format: cell-based
# T2 construct: expressed in transfected cells; host or cells: Saccharomyces cerevisiae yWS677 (BY4741 derivative), chromosomally integrated YTK cassette
# T2 sequence (Q00619 1-348): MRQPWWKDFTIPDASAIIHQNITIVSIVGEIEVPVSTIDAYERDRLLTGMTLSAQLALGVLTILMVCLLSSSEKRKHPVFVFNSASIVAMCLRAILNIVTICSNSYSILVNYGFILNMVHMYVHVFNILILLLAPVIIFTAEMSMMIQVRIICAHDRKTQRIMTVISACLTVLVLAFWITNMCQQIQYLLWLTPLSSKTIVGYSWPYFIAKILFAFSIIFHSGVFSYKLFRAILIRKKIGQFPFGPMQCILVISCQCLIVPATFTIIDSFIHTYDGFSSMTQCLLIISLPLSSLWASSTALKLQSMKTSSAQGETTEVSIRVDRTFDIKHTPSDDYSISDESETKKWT
# human MTNR1A receptor [3] = biological target: T3, human MTNR1A receptor (Homo sapiens, UniProt P48039); details: for Hill slope: plate reader
# T3 sequence (P48039 whole entry, one chain of several): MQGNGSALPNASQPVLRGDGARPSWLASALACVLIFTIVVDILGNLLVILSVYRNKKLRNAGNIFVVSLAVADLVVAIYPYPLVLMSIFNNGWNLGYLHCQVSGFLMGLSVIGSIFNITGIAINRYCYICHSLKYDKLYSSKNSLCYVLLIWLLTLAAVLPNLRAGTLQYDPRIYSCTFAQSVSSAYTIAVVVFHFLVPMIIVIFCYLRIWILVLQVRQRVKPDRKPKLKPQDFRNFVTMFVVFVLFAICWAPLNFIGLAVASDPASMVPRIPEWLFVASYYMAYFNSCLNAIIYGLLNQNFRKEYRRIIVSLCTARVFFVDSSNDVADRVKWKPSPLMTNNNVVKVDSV
# human MTNR1A receptor [4] = biological target: T3, human MTNR1A receptor
# [5] = system: P. brasiliensis Ste2 homolog (PbSte2); assay: PbPeptide dose-response, PbSte2 sensor single cell and two-cell amplifier-receiver consortium, GFP by plate reader; format: cell-based, Paracoccidioides brasiliensis
# Excerpt: For pathogen detection, we next set out to tune a point-of-care sensor for Paracoccidioides brasiliensis, recently developed by [Ostrov et al. (2017)]. This yeast GPCR-based sensor, utilizing the Ste2 homolog from P. brasiliensis (PbSte2), detects environmental levels of pheromone peptide released by haploid P. brasiliensis cells (PbPeptide) as a means of specifically detecting this human pathogen in complex samples (Figure 6E). […] To optimize these two properties, we applied our amplifier-receiver two strain approach to the PbSte2 sensor (Figures 6F–6H).
# [6] = system: P. brasiliensis Ste2 homolog (PbSte2); details: PbSte2 in S. cerevisiae; ref Ostrov et al., 2017; cited from earlier work
# Excerpt: (D) The ... || For pathogen detection, we next set out to tune a point-of-care sensor for Paracoccidioides brasiliensis, recently developed by [Ostrov et al. (2017)]. This yeast GPCR-based sensor, utilizing the Ste2 homolog from P. brasiliensis (PbSte2), detects environmental levels of pheromone peptide released by haploid P. brasiliensis cells (PbPeptide) as a means of specifically detecting this human pathogen in complex samples (Figure 6E).
# [7] = three-strain consortium 1:1:1 vs initial response
compound,measurement,setting,value
"WHWLQLKPGQPMY [α-factor, S. cerevisiae peptide pheromone, ligand of Ste2]",activation at 100 pM ɑ-factor on Ste2 overexpression,"Ste2; Design 4 strain with 2x and 3x Ste2 (pCCW12), Fig S4H",unchanged
same,sensitivity and signal output compared with BY4741,"Ste2; Quasi-WT strain, FUS1 promoter-sfGFP",substantial increase in sensitivity and signal output
same,sensitivity compared with Quasi-WT,"Ste2; design 3 strain (Gpa1 by PGK1, Ste2 by pCCW12), Fig 4A-B",approached the sensitivity of the Quasi-WT strain
Nc1ncnc2c1ncn2[C@@H]1O[C@H](CO)[C@@H](O)[C@H]1O [Adenosine],Hill slope,"human A2BR receptor [1]; Fig 5B, single pop.",1.41 ± 0.10
same,operational range,"human A2BR receptor [1]; Fig 5B, single pop., span between 5% and 95% of the activated response",1.56 ± 0.07 orders of magnitude
same,operational range,"human A2BR receptor [1]; Fig 5C legend, consortia of three engineered strains",3.3 orders of magnitude
same,Hill slope,"human A2BR receptor [1]; Fig 5C, mixed pop. of three strains 1:1:1",0.78 ± 0.02
same,operational range,"human A2BR receptor [1]; Fig 5C, mixed pop. of three strains 1:1:1, span between 5% and 95% of the activated response",3.27 ± 0.08 orders of magnitude
same,change in Hill slope,human A2BR receptor [1]; [7],almost halved the Hill slope
same,increase in operational range,human A2BR receptor [1]; [7],50 -fold
same,Hill slope,human A2BR receptor [2],1.32 ± 0.08
TYADFLRAYQSWNTFVNPDRPNL [P-factor],EC50,"Mam2 receptor; Fig 4D, Mam2 - yWS677, 4 h induction, 1 % DMSO, SC medium, 30°C, sfGFP flow cytometry, mean ± SD, triplicate isolates",0.117 µM
same,potency (EC50) compared with native S. pombe response,"Mam2 receptor; Mam2 sensor strain vs S. pombe (Croft et al., 2013)",identical potency (EC50)
COc1ccc2[nH]cc(CCNC(C)=O)c2c1 [Melatonin],operational range,"human MTNR1A receptor [3]; Fig 5F legend, single population",3.8 orders of magnitude
same,Hill slope,"human MTNR1A receptor [3]; Fig 5F, single pop.",0.69 ± 0.03
same,operational range,"human MTNR1A receptor [3]; Fig 5F, single pop., span between 5% and 95% of the activated response",3.79 ± 0.15 orders of magnitude
same,Hill slope,"human MTNR1A receptor [3]; Fig 5G, mixed pop., tuned two-strain system 1:1",1.65 ± 0.06
same,operational range,"human MTNR1A receptor [3]; Fig 5G, mixed pop., two-strain system, span between 5% and 95% of the activated response",1.48 ± 0.19 orders of magnitude
same,Hill slope,"human MTNR1A receptor [4]; Fig S6D, MTNR1A sensor strain, wild-type Gpa1, flow cytometry, triplicate isolates",0.80 ± 0.04
same,linear range of dose-response,"human MTNR1A receptor [4]; two-strain consortia, Fig 6B",four
WCTRPGQGC [PbPeptide],detection range,"[5]; CCW12 promoter and signal amplification, two-strain consortia",picomolar range
same,narrowing of operational range,[5]; amplifier-receiver two strain consortia,"1,000 -fold"
same,sensitivity,[6],nanomolar sensitivity
